Values joined by “and” are separate entries in the source; they are usually repeats but may differ in a detail not shown here. Identical values can stand only once. Residues, ends and D or L forms follow the SMILES beside them.
B1: RNase 3: Recombinant human RNase 3, also known as eosinophil cationic protein (ECP), parental protein of the peptide (protein, UniProt P12724 28-160, looked up)
Eosinophil cationic protein: RPPQFTRAQWFAIQHISLNPPRCTIAMRAINNYRWRCKNQNTFLRTTFANVVNVCGNQSIRCPHNRTLNNCHRSRFRVPLLHCDLINPGAQNISNCTYADRPGRRFYVVACDNRDPRDSPRYPVVPVHLDTTI

Columns and labels:
planktonic P. aeruginosa [1] = assay: DiSC3(5) cytoplasmic membrane depolarization assay, planktonic; type: cell-based, Pseudomonas aeruginosa; details: 10% Triton X-100 as maximum reference
Experimental: To further investigate the antimicrobial mechanism of action of the peptide, its ability to depolarize P. aeruginosa membranes was evaluated. Depolarization activity was analyzed by the DiSC3(5) assay (Table 5). DiSC3(5) is a fluorescent probe, which is sensitive to membrane potential. The DiSC3(5) fluorescence is quenched upon interaction with intact cell membranes. When the membrane potential is lost, the probe is released to the medium, resulting in an increase of fluorescence that can be recorded as a function of peptide concentration. Thus, the half depolarization action (ED50) was evaluated, defined as the peptide concentration needed to achieve a half-depolarization effect, and the total depolarization activity at final incubation time (Table 3).
(§1) Membrane depolarization was followed using the method described earlier (Torrent M. et al. 2008). Briefly, bacterial cells were grown at 37° C. to an OD600=0.2, centrifuged at 5000×g for 7 min, washed with 5 mM Hepes at pH 7.2 containing 20 mM glucose, and resuspended in 5 mM Hepes-KOH, 20 mM glucose, and 100 mM KCl at pH 7.2 to an OD600=0.05 and 200 μl were transferred to a microtiter plate for planktonic assays. For biofilm assay, 24 h formed P. aeruginosa biofilm in a 96-well microtiter plate were washed three times with sterile PBS. Afterwards P. aeruginosa biofilms were washed with 5 mM Hepes at pH 7.2 containing 20 mM glucose, and rinsed in 5 mM Hepes-KOH, 20 mM glucose, and 100 mM KCl at pH 7.2. In both cases, DiSC3(5) was added to a final concentration of 0.4 μM and changes in the fluorescence were continuously recorded after addition of peptides at 10 μM in a Victor3 plate reader. A maximum reference value for total depolarization is calculated for Triton X-100 at 10%. Alternatively, changes in the fluorescence were continuously recorded after addition of a serially diluted protein/peptides from 50 to 0.1 μM. The peptide concentration required to achieve half of total and total membrane depolarization after 40 min incubation time was estimated from nonlinear regression analysis as previously described (Torrent M. et al. 2010)

planktonic P. aeruginosa [2] = assay: SYTOX Green membrane permeabilization assay, planktonic; type: cell-based, Pseudomonas aeruginosa; details: 10% Triton X-100 as maximum reference
Experimental: Further insight into the membrane-permeabilizing effect of the selected AMPs against P. aeruginosa was evaluated by the Sytox Green assay. Local membrane disturbances allow the cell uptake of the fluorescent Sytox Green dye that subsequently stains the cell nucleic acids; the fluorescence increase is registered to monitor the cell membrane permeabilization. Therefore, the half permeabilization action (ED50) was measured, and the total permeabilization activity expressed as a percentage (Table 5). […] On the other hand, WY-12 and CA-M required a 6- to 7-fold greater concentration than RNase 3 to produce half of their permeabilizing effect.
(§2) Membrane permeabilization was followed using the method SYTOX Green Fluorescence membrane permeabilization assay. In the planktonic assay, bacterial cells were grown at 37° C. to an OD600=0.2, centrifuged at 5000×g for 5 min, and resuspended in 1×PBS to an OD600=0.2. An aliquot of 200 μl was then transferred to a microtiter plate. For biofilm assay, 24 h formed P. aeruginosa biofilm in a 96-well microtiter plate were washed three times with sterile PBS. SYTOX Green was added to a final concentration of 1 μM and incubated 15 min in darkness. Changes in the fluorescence were continuously recorded after addition of a serially diluted protein/peptides from 50 to 0.1 μM in a Victor3 plate reader. The peptide concentration required to achieve half of total and total membrane permeabilization achieved after 40 min was estimated from nonlinear regression analysis as previously described (Pulido D. et al. Antimicrob Agents Chemother 2013). A maximum reference value was taken for Triton X-100 at 10%.

[3] = tested on: pre-established P. aeruginosa biofilm; assay: Biofilm eradication assay, crystal violet staining; type: cell-based, Pseudomonas aeruginosa; details: 24 h formed biofilm; 4 h at 37° C.; 10% Triton X-100 as maximum reference
Experimental: Following, the biofilm eradication activity was determined (FIG. 1 and Table 6). […] Moreover, the biofilm eradication activity of all the tested reference peptides was well above the maximum concentration tested (50 μM), except for RN3(5-17P22-36) which was able to eradicate the biofilm close to 50 μM.
(§3) Biofilm formation assay was modified from the previously described protocol (Huedo P. et al. 2014). Briefly, overnight cultures of P. aeruginosa were centrifuged at 5000×g for 5 min, washed and adjusted to an OD600=0.1 in tryptic soy medium (TSB). Two hundred microliters of the bacterial suspension were dispensed in each well of a polystyrene 96-well microtiter plate (Greiner Bio-one, France). The plate was incubated at 37° C. on an orbital shaker (30 rpm). The media was exchanged with fresh pre-warmed TSB after 4 h, in order to remove the non-attached bacteria. After 24 h incubation, the formation of biofilm was then evaluated using the crystal violet staining technique (Stepanovic S. et al. 2000). Briefly, the plates were washed three times with PBS, fixed at 60° C. for 1 h, and stained for 15 min with 200 μl of 0.1% crystal violet. After the dye was discarded, plates were rinsed in PBS and allowed to dry for 30 min at 37° C. Crystal violet was dissolved in 250 μl of 95% ethanol for 15 min, and the OD570 of the extracted dye was measured using a Victor3 plate reader (Perkin-Elmer, Waltham, Mass.).
Biofilms were grown as above. Twenty-four hour formed P. aeruginosa biofilm was washed three times with sterile PBS, and rinsed with 10 mM sodium phosphate buffer pH 7.5. Each well was treated with increasing protein/peptide concentrations (from 0.01 to 50 μM) and incubated at 37° C. for 4 h. The biofilm eradication was then evaluated using the crystal violet staining technique (Stepanovic S. et al. 2000). The ability of the antimicrobial peptides to disperse and reduce the biofilm mass of preformed biofilms was calculated. The peptide concentration required to achieve total preformed biofilm eradication after 4 h incubation time was estimated. A maximum reference value was taken for Triton X-100 at 10%. The minimum biofilm eradication concentration (MBEC), defined as the protein/peptide concentration where the 99.9% of the biofilm mass is eradicated was estimated.

[4] = Biofilm cell mortality, BacTiter-Glo luminescent assay; type: cell-based, Pseudomonas aeruginosa; details: 24 h formed biofilm; 4 h at 37° C.; 10% Triton X-100 as maximum reference; N.D. = not detected at 50 μM; read-out: Biofilm cell mortality (%max)
Experimental: (§4) Bacterial viability was assayed using the BacTiter-Glo™ microbial cell viability kit. Briefly, protein/peptides were dissolved in 10 mM sodium phosphate, 0.1M buffer, pH 7.5, serially diluted from 50 to 0.1 μM and tested in a 96-well microtiter plate containing P. aeruginosa planktonic (OD600˜0.2) or 24 h formed biofilm for 4 h at 37° C. Fifty microliters of BacTiter-Glo™ reagent was added to each well according to the manufacturer's instructions and incubated at room temperature for 15 min. Luminescence was read on a Victor3 plate reader with a 3-s integration time. Fifty percent (ED50) and total inhibitory concentrations were calculated by fitting the data to a dose-response curve.
(§5) As a first approach, the biofilm cell viability was monitored using the BacTiter-Glo™ luminescent assay. Therefore, the antimicrobial action of the studied AMPs was determined on already established P. aeruginosa biolfilms (FIG. 1 and Table 6). […] However, for all the active peptides, the concentrations needed to produce an equivalent effect in biofilms were between 2 to 10 times higher than in planktonic cultures. […] At the same time, we applied the crystal violet technique to assess the peptide ability to disperse pre-established P. aeruginosa biofilms.
as §3

[5] = tested on: established P. aeruginosa biofilms; assay: DiSC3(5) membrane depolarization assay on biofilm; type: cell-based, Pseudomonas aeruginosa; details: maximum percentage at final incubation time, 10% Triton X-100 reference
Experimental: as §1
(§6) Thereupon, the antimicrobial mechanism of action of the RNase 3 derived peptide on P. aeruginosa biofilms was further characterized with the depolarization and permeabilization assays. As applied for the P. aeruginosa planktonic culture, the fluorescent DisC3(5) assay was also used here in order to monitor the depolarization activity of the studied protein and peptides against established biofilms. Therefore, we have measured the half depolarization action (ED50), and the total depolarization activity expressed as a percentage (Table 7). […] Similar results were obtained for the Sytox Green permeabilization assay, where the total permeabilization effect was hindered for all the AMPs tested, and between two to ten times higher concentrations were required to achieve half of the biofilm cell permeabilizing effect in comparison to the planktonic cells.

[6] = tested on: established P. aeruginosa biofilms; assay: SYTOX Green membrane permeabilization assay on biofilm; type: cell-based, Pseudomonas aeruginosa; details: maximum percentage at final incubation time, 10% Triton X-100 reference
Experimental: as §2, §6

planktonic P. aeruginosa [7] = type: cell-based, Pseudomonas aeruginosa; details: planktonic P. aeruginosa; 4 h at 37° C.; mean ± SEM; N.D. = not detected at 50 μM; read-out: IC50 (50% bacterial viability)
Experimental: The microbial cell viability was then assayed using the BacTiter-Glo™ luminescent kit. […] No cell reduction was detected for the peptide GL-13 even for the maximum concentration assayed (50 μM).
as §4

[8] = tested on: LPS (lipopolysaccharides) from P. aeruginosa; assay: LPS binding assay, BODIPY TR cadaverine (BC) displacement; parameters: species or system Pseudomonas aeruginosa; details: 100% = total displacement of the dye; mean ± SEM
Experimental: Following, LPS binding affinity was monitored by a fluorometric assay which measures the competitive displacement of a cadaverine fluorescent probe (BC) by the protein and peptides. The half LPS binding affinity (ED50), defined as the AMP concentration needed to achieve half of BC displacement, and the total LPS binding affinity, expressed as a percentage, were determined (Table 4). Interaction with negatively charged surfaces of bacteria is the first step for cationic peptides to reach the bacterial membranes and exert their antimicrobial action.
LPS binding was assessed using the fluorescent probe BODIPY TR cadaverine (BC) as previously described (Pulido D. et al. Febs J 2013). BC binds strongly to native LPS, specifically recognizing the lipid A portion. When a protein that interacts with LPS is added, BC is displaced from the complex and its fluorescence is increased, decreasing its occupancy factor. LPS-binding assays were carried out in a 10 mM Hepes buffer at pH 7.5. The displacement assay was performed using a 96 well microtiter plate containing stirred mixture of either LPS (10 μg/mL) and BC (10 μM). Protein/peptides were serially diluted from 10 to 0.1 μM. Fluorescence measurements were performed on a Victor3 plate reader (Perkin Elmer, Waltham, Mass.). The protein/peptide concentration required to achieve half of total and total BC displacement was estimated from nonlinear regression analysis as previously described (Wood S. J. et al. 2004)

[9] = tested on: pre-established P. aeruginosa biofilm; assay: Biofilm cell mortality, BacTiter-Glo luminescent assay; type: cell-based, Pseudomonas aeruginosa; details: 24 h formed biofilm; 4 h at 37° C.; 10% Triton X-100 as maximum reference; N.D. = not detected at 50 μM
Experimental: as §4, §5, §3

Molecule | Depolarization %max (planktonic P. aeruginosa [1]) | Permeabilization %max (planktonic P. aeruginosa [2]) | Biofilm eradication (%max) [3] | mortality [4] | Depolarization Mean % ± SEM [5] | Permeabilization Mean % ± SEM [6] | IC50 (planktonic P. aeruginosa [7]) | LPS binding %max (percentage of maximum displacement) [8] | Biofilm cell mortality (%max) [9]
CC[C@H](C)[C@H](NC(=O)[C@H](Cc1ccccc1)NC(=O)[C@@H](NC(=O)[C@H](Cc1ccccc1)NC(=O)[C@H](CCCNC(=N)N)NC(=O)[C@H](CCCCN)NC(=O)[C@H](CCCNC(=N)N)NC(=O)[C@H](CCCCN)NC(=O)[C@H](Cc1c[nH]c2ccccc12)NC(=O)[C@H](CC(C)C)NC(=O)[C@@H](NC(=O)[C@@H](N)Cc1ccc(O)cc1)C(C)C)[C@@H](C)CC)C(N)=O [WY-12, YVLWKRKRFIFI-NH2] (H-YVLWKRKRFIFI-NH2; N-terminus assumed) | 44.02 ± 4.01% | 39.43 ± 1.19% | 38.36 ± 2.36% | 39.7 ± 8.93% | 32.58 ± 1.87% | 18.91 ± 2.23% |  |  | 
B1 |  | 45.67 ± 2.29% |  |  | 46.11 ± 3.21% | 39.4 ± 2.88% | 840 ± 30 nM | 99.85 ± 9.51% | ~50% and 67.31 ± 0.79%

— patent US10487117B2, “Antimicrobial peptide for nosocomial infections” (priority 2015, dated 2019)
